# Measured values reported in patent US9963482B2, “Phosphatidylinositol-3-kinase inhibitor and pharmaceutical composition” (Tohoku University, priority 2011, dated 2018).
# Like-named read-outs stand apart in the source and are kept apart here.
# Experiments:
# [1] = tested on: HCT116 cells; experiment: Western blotting for apoptosis, AKT and histone acetylation in HCT116 cells; assay type: cell-based, human; details: HCT116, 24 hours, 5 μM
# Procedure: With regard to Western blotting, HCT116 cells were treated for 24 hours with SAHA or FK-228 at predetermined concentrations, and then the expression of PARP, cleaved PARP, phosphorylated AKT (S473), AKT, acetylated histone H3, and acetylated histone H4 was analyzed.
# [2] = tested on: AKT pathway in PC3 (prostate cancer) cells; experiment: AKT pathway inhibition by Western blotting in PC3 cells; assay type: cell-based, human; details: for expression level of phosphorylated AKT (Ser-473, Thr-308) over time: 5 to 180 minutes
# Procedure: PC3 cells were obtained from Cell Resource Center for Medical Research of Institute of Development, Aging, and Cancer, Tohoku University. The cells were cultured at 37° C. in the presence of 5% CO2 by using RPMI1640 medium containing inactivated fetal bovine serum at the concentration of 10%.
# Western blotting was performed as follows. Various kinds of the cells treated with each compound were collected and lysed in a lysis buffer (500 mM Tris-HCl pH 7.5, 100 mM NaCl, 2 mM EDTA, 1 mM sodium orthovanadate, 1% NP-40, and 1% protease inhibitor cocktail, manufactured by SIGMA-ALDRICH). After centrifugation, the supernatants were collected.
# The followings were used as primary antibodies.
# As a secondary antibody, “Alexa Fluor680IgG” (trade name, manufactured by Invitrogen) was used. By using “Odyssey Infrared Imaging System” (trade name, manufactured by LI-COR), expression of the protein of interest was determined.
# [3] = molecular target: T1, human p110α expressed in budding yeast (Homo sapiens, UniProt P42336); experiment: Screening of PI3K inhibitor using budding yeast (recovery from cell proliferation disorder caused by p110α); assay type: cell-based; details: AD1-9 transformant expressing p110α, compound 5 μM, 24 hours, average of three tests
# T1 construct: expressed in transfected cells; host or cells: Saccharomyces cerevisiae AD1-9 (LEU2-disrupted), galactose-induced
# Procedure: AD1-9 strain can be obtained from Nader Nourizad (Stanford Genome Technology Center Stanford University, CA, USA).
# The transformed AD 1-9 strain was cultured at 30° C. in a minimal complete medium SC-U-L containing no uracil and leucine or SGal-U-L in which 2% glucose was replaced with 2% galactose.
# By using the aforementioned system, screening of the compound library, which was obtained from the Screening committee of anticancer drugs supported by grant-in-aid for scientific research on priority area “Cancer” from Ministry of Education, Culture, Sports, Science, and Technology, Japan, was performed. Each compound was added to SGal-U-L liquid medium to constitute a concentration of 0.5 μM or 5 μM and the transformant of AD 1-9 was cultured for 24 hours under shaking. Thereafter, A600 was measured. […] Three independent tests were repeatedly performed to calculate the average value of A600.
# [4] = tested on: HCT116 cells; experiment: FACS cell cycle analysis in HCT116 cells; assay type: cell-based, human; details: HCT116, 24 hours; SAHA 2.5 μM, LY294002 50 μM, FK228 or FK-A5 at low concentration
# Procedure: The cells were collected, fixed with ethanol, stained with iodopropidium/PBS solution, and analyzed by using “Cytomics FC500 Flow Cytometry System” (trade name, manufactured by Beckman Coulter). The cell cycle fractions were calculated by using “Multicycle software” (trade name, manufactured by Phenomix Flow Systems).
# [5] = molecular target: T2, PI3K (p110α/p85α) (Homo sapiens, UniProt P42336); experiment: In vitro PI3K inhibitory activity by mobility shift assay (Carna Biosciences); assay type: biochemical; details: for PI3K activity inhibitory rate: compound 20 μM, 50 μM ATP
# T2 construct: purchased Carna Biosciences, Inc. (Kobe); contract measurement
# Procedure: The PI3K (p110α/p85α) inhibitory activity was evaluated at Carna Biosciences, Inc. (Kobe) by mobility shift assay which included isolation and quantification of a substrate and the phosphorylated substrate based on the mobility in a capillary (https://www.carnabio.com/japanese/product/search.cgi?mode=profiling). […] After allowing the reaction to occur for 5 hours at room temperature, the mobility shift assay was performed. The test was performed in duplicate.
# Inhibition rate was calculated as follows.
# The value of product/substrate+product when an agent was added thereto was calculated similarly, and the inhibition rate was calculated based on a difference from the control value.
# [6] = molecular target: HDAC1 (Homo sapiens, UniProt Q13547); details: Table 2; cited from earlier work
# [7] = molecular target: T3, HDAC6 (Homo sapiens, UniProt Q9UBN7); details: Table 2; cited from earlier work
# T3 sequence (Q9UBN7 1-1215): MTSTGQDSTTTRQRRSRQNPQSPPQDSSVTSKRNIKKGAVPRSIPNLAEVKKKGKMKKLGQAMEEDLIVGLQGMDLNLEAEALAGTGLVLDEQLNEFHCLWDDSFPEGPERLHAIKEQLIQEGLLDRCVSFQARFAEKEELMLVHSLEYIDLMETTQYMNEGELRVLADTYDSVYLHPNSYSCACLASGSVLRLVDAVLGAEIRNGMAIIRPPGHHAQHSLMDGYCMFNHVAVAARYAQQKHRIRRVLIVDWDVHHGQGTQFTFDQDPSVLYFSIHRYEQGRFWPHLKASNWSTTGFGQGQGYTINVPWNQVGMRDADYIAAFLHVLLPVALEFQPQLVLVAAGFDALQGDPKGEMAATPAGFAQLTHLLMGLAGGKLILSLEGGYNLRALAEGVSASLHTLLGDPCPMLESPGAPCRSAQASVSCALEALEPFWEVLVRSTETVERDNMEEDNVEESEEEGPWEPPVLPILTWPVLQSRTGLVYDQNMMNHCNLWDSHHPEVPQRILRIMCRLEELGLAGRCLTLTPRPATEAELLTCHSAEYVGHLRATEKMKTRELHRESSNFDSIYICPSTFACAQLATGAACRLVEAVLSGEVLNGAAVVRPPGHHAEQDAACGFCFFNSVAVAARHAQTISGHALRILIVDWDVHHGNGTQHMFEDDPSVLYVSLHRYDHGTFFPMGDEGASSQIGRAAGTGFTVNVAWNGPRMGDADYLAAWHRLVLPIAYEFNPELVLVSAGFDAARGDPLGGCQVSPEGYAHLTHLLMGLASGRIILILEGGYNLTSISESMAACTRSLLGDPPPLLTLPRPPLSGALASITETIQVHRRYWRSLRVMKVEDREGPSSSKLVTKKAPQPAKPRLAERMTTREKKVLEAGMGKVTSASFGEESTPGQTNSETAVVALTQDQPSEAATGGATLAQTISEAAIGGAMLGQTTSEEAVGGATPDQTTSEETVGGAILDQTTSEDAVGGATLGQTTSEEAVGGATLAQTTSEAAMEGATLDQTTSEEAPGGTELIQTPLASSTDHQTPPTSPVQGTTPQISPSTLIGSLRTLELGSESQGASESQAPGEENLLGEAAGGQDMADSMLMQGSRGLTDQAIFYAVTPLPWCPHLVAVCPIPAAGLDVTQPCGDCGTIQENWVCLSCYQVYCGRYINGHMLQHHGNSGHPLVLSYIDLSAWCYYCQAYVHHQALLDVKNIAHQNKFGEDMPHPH
# [8] = Table 3, PI3K (p110α/p85α), read-out: PI3K IC50
# T1 sequence (P42336 whole entry): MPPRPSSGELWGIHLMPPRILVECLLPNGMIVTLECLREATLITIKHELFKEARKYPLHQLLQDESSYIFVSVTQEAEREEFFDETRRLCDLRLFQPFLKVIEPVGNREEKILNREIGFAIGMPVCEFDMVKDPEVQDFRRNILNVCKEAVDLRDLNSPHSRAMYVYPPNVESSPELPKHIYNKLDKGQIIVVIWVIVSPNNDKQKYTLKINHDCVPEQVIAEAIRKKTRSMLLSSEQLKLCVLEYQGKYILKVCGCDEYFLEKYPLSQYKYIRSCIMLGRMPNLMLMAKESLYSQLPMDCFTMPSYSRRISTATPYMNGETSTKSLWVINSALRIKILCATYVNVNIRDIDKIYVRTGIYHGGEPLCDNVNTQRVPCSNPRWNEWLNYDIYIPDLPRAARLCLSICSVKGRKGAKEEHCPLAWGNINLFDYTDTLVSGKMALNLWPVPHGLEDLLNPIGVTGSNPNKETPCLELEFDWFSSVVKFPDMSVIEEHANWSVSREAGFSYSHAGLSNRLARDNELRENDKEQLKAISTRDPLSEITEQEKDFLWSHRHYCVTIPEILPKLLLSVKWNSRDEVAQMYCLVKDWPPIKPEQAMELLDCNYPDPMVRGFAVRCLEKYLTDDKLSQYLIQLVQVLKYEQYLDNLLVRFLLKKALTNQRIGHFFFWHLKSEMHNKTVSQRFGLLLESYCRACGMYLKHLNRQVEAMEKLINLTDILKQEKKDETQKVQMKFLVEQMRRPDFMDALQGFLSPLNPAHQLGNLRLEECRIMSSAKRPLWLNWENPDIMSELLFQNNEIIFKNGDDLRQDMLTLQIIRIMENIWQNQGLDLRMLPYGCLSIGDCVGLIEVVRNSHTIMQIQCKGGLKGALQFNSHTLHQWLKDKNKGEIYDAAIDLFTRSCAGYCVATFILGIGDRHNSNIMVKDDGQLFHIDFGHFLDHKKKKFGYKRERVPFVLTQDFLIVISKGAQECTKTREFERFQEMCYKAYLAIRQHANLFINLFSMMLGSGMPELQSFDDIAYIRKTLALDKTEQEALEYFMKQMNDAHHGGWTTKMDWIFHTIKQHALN
# T2 sequence (P42336 whole entry): as above
# T2 sequence (P27986 whole entry partner): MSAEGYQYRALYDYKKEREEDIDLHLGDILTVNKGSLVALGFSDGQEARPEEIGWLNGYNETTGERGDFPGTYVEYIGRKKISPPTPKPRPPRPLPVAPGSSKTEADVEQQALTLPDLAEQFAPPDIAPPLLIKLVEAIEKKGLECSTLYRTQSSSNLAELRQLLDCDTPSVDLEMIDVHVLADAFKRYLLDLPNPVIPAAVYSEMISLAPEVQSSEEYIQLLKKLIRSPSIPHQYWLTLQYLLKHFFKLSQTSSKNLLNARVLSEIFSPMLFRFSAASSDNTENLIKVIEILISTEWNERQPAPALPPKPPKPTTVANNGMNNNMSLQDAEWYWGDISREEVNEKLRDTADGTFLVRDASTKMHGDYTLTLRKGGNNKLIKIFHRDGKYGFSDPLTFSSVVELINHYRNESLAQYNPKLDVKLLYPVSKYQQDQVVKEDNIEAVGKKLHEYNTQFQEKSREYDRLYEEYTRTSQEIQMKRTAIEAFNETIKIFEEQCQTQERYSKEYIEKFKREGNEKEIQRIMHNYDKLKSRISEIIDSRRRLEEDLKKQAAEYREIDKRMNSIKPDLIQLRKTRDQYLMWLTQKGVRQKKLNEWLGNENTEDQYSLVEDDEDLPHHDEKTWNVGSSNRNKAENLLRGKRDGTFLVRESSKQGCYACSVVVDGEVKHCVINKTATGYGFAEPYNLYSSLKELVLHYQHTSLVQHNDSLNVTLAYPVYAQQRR
# Sequence of HDAC1 (Q13547 whole entry, species assumed): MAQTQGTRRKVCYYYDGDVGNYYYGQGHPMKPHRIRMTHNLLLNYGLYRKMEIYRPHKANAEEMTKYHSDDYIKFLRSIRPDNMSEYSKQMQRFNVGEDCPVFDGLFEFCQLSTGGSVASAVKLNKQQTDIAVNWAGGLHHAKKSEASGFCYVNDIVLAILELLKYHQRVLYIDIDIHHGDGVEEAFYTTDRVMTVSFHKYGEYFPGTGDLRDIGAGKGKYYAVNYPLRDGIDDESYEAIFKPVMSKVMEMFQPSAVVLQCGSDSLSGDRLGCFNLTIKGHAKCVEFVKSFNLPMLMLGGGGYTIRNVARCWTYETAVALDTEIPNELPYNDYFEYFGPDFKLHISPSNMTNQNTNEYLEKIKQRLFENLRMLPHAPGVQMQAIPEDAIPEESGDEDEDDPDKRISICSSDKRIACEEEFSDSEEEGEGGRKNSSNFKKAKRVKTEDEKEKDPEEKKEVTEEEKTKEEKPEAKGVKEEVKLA
smiles,measurement,setting,value
"C/C=C1\NC(=O)[C@H]2CSSCC/C=C/[C@H](CC(=O)N[C@H](C(C)C)C(=O)N2)OC(=O)[C@H](C(C)C)NC1=O [FK228, romidepsin]",Cleaved PARP,[1],increased most
same,expression of acetylated histone,[1],enhanced the expression of acetylated histone
same,phosphorylated AKT,[1],inhibited the phosphorylated AKT
same,"expression level of phosphorylated AKT (Ser-473, Thr-308) over time",[2]; 10 μM,"lowered the expression level of phosphorylated AKT (Ser-473, Thr-308)"
same,lowering of expression level of phosphorylated AKT (S473) compared to control,"[2]; 10 μM, 180 minutes",66%
same,lowering of expression level of phosphorylated AKT (T308) compared to control,"[2]; 10 μM, 180 minutes",86%
same,phosphorylated ERK1/2,[2]; 180 minutes,slightly inhibited
same,phosphorylated MEK1/2,[2]; 180 minutes,not inhibited
same,"expression levels of phosphorylated AKT, GSK-3β, mTOR, p70S6K and 4E-BP1","[2]; 180 minutes, varying concentration",inhibited in a concentration dependent manner
same,A600,[3],0.385
same,cell cycle arrest,[4],"induced cell cycle arrest, predominantly at G2/M phase"
same,IC50,"[5]; high ATP concentration (500 μM), read-out: IC50 for PI3K",125 µM
same,inhibition at 10 µM,[5]; read-out: inhibition rate in the PI3K inhibition curve,6.5%
same,IC50,"[5]; standard ATP concentration (50 μM), read-out: IC50 for PI3K",57.2 µM
C/C=C1\NC(=O)C2CSSCC/C=C/C(CC(=O)N[C@H](C(C)C)C(=O)N2)OC(=O)CNC1=O (some centres unmarked) [FK-A1],IC50,[6],0.0078 µM
same,IC50,[7],3.2 µM
CC(C)C1NC(=O)CC2/C=C/CCSSCC(NC1=O)C(=O)NCC(=O)NCC(=O)O2 (centres unmarked) [FK-A2],IC50,[6],0.045 µM
same,IC50,[7],4.8 µM
CC(C)C1NC(=O)CC2/C=C/CCSSCC(NC1=O)C(=O)N[C@H](C)C(=O)NCC(=O)O2 (some centres unmarked) [FK-A3],IC50,[6],0.0042 µM
same,IC50,[7],3.2 µM
same,A600,[3],0.380
same,PI3K activity inhibitory rate,[5],higher inhibition rate than FK228
CC(C)[C@H]1NC(=O)CC2/C=C/CCSSCC(NC1=O)C(=O)N[C@@H](C)C(=O)NCC(=O)O2 (some centres unmarked) [FK-A4],IC50,[6],0.34 µM
same,IC50,[7],2.1 µM
CC(C)[C@H]1NC(=O)CC2/C=C/CCSSCC(NC1=O)C(=O)N[C@@H](Cc1ccccc1)C(=O)NCC(=O)O2 (some centres unmarked) [FK-A6],IC50,[6],0.019 µM
same,IC50,[7],2.9 µM
same,PI3K activity inhibitory rate,[5],higher inhibition rate than FK228
CC(C)C[C@H]1NC(=O)C2CSSCC/C=C/C(CC(=O)N[C@H](C(C)C)C(=O)N2)OC(=O)CNC1=O (some centres unmarked) [FK-A7],IC50,[5]; [8],32.2 µM
CC(C)C[C@@H]1NC(=O)C2CSSCC/C=C/C(CC(=O)N[C@H](C(C)C)C(=O)N2)OC(=O)CNC1=O (some centres unmarked) [FK-A8],IC50,[5]; [8],44.7 µM
CC(C)[C@H]1NC(=O)CC2/C=C/CCSSCC(NC1=O)C(=O)N[C@H](Cc1ccc(O)cc1)C(=O)NCC(=O)O2 (some centres unmarked) [FK-A9],IC50,[5]; [8],14.1 µM
COc1ccc(C[C@H]2NC(=O)C3CSSCC/C=C/C(CC(=O)N[C@H](C(C)C)C(=O)N3)OC(=O)CNC2=O)cc1 (some centres unmarked) [FK-A10],IC50,[5]; [8],26.7 µM
CC(C)[C@H]1NC(=O)CC2/C=C/CCSSCC(NC1=O)C(=O)N[C@@H](Cc1cccc3ccccc13)C(=O)NCC(=O)O2 (some centres unmarked) [FK-A12],IC50,[5]; [8],7.2 µM
CC(C)[C@H]1NC(=O)CC2/C=C/CCSSCC(NC1=O)C(=O)N[C@H](Cc1ccc3ccccc3c1)C(=O)NCC(=O)O2 (some centres unmarked) [FK-A13],IC50,[5]; [8],8.5 µM
CC(C)[C@H]1NC(=O)CC2/C=C/CCSSCC(NC1=O)C(=O)N[C@H](Cc1ccc(F)cc1)C(=O)NCC(=O)O2 (some centres unmarked) [FK-A17],IC50,[5]; [8],20.2 µM
O=c1cc(N2CCOCC2)oc2c(-c3ccccc3)cccc12 [LY294002],"expression level of phosphorylated AKT (Ser-473, Thr-308) over time",[2]; 10 μM,"lowered the expression level of phosphorylated AKT (Ser-473, Thr-308)"
same,A600,[3],0.482
same,cell cycle arrest,[4],induced arrest of G0/G1 phase
"O=C(CCCCCCC(=O)Nc1ccccc1)NO [SAHA, suberoyl anilide hydroxamic acid]",cell cycle arrest,[4],induced arrest of G2/M phase
"CC(C)C1NC(=O)C2CSSCC/C=C/C(CC(=O)N[C@H](C)C(=O)N2)OC(=O)C[C@@H]1O (some centres unmarked) [SP-1, spiruchostatin A]",IC50,[6],0.0033 µM
same,IC50,[7],1.6 µM
same,A600,[3],0.412
"CC[C@H](C)C1NC(=O)C2CSSCC/C=C/C(CC(=O)N[C@H](C)C(=O)N2)OC(=O)C[C@@H]1O (some centres unmarked) [SP-2, spiruchastatin B]",IC50,[6],0.0022 µM
same,IC50,[7],1.4 µM
"CC[C@@H](C)C1NC(=O)C2CSSCC/C=C/C(CC(=O)N[C@H](C)C(=O)N2)OC(=O)C[C@@H]1O (stereo partly drawn) [SP-3, 5″-epi-spiruchostatin B]",IC50,[6],0.0024 µM
same,IC50,[7],3.9 µM
same,A600,[3],0.464
"CC(C)[C@H]1NC(=O)C2CSSCC/C=C/C(CC(=O)N[C@H](C(C)C)C(=O)N2)OC(=O)C[C@@H]1O (some centres unmarked) [SP-5, spiruchostatin D]",PI3K activity inhibitory rate,[5],higher inhibition rate than FK228
